Experimental data published in patent US20170290882A1, “Specific Combined Therapy of Malignant Tumors with a Cytostatic and Its Modifier” (priority 2015, published 2017).

Legend:
[1] = tested on: P388 lymphoplastic leukemia; test: Combined therapy DDP+GMDP-A in the P388 lymphoplastic leukemia model; format: in vivo, mice BDF1; conditions: for Tumor volume / tumor growth inhibition (TGI) / Average life time / ILT (increase of the animal life time) / Metastasis MF (tumor metastasis frequency) / Metastasis MI (metastasis inhibition rate): DDP, if given, single 4 mg/kg i.v.
Description: (§1) They were transplanted on the right-side surface of the animal body.
(§2) The animals with tumors were treated in test groups at the early (24 hours after tumor inoculation) and late (5 days after tumor inoculation) terms of the tumor growth using a single cytostatic injection intravenously in a dose equal to ½ or ¼ of therapeutic one and various schedules for GMDP-A injection: • Primary subcutaneous injection of GMDP-A modifier in a single dose 3.75 mg/kg; • Repeated protracted subcutaneous administration of GMDP-A modifier according to different schedules: 4-fold, 9-fold and 20-fold, once per day, in a single dose of 3.75 mg/kg (course dose is 18.75 mg/kg, 37.5 mg/kg and 78.75 mg/kg, correspondingly). Dosage frequency depends upon the model (histological form of transplanted tumor).
(§3) To identify efficiency of the claimed combined therapy, independent medication was carried out as a control after tumor inoculation using one component of binary therapy-cytostatic drug or a modifier. Cytostatic was injected intravenously in amount of ½ or ¼ of therapeutic dose once after 24 hours or 5 days after tumor inoculation; GMDP-A modifier was administered subcutaneously in a single dose of 3.75 mg/kg 5-fold from the 1st day to the 5th day or from the 5th day to the 9th day, or 10-fold from the 1st day to the 10th day or from the 5th day to the 14th day, or 21-fold from the 1st day to the 21st day after tumor inoculation.
(§4) Anti-tumor efficiency of the claimed combined therapy and comparative monotherapy using only a cytostatic or only GMDP-A modifier was assessed by the criteria commonly used in experimental oncology: tumor volume (TV), tumor growth inhibition (TGI), increase of the animal life time (ILT), tumor metastasis frequency (MF), metastasis inhibition rate (MI).
Efficiency of the combined therapy—chemotherapy with cisplatin cytostatic (DDP) and bioherapy with GMDP-A was assessed on P388 lymphoplastic leukemia model inoculated to mice BDF1, females, subcutaneously on the right-side body surface.
GMDP-A was administered to mice subcutaneously as a single dose of 3.75 mg/kg every day with different schedules: • Five-fold (total dose is 18.75 mg/kg) on the 1st day to the 5th day or on the 5th day to the 9th day after tumor inoculation; • Ten-fold (total dose is 37.5 mg/kg) on the 1st day to the 10th day or on the 5th day to the 14th day after tumor inoculation; • Twenty-one-fold (total dose is 78.75 mg/kg) on the 1st day to the 21st st day after tumor inoculation.
DDP (Cisplatin, Cisplatin Teva trade mark, manufacturer is Teva Pharmaceutical Industries Ltd., Israel, fabricated at Pharmachemie B.V., the Netherlands) was administered intravenously as a single dose ma 4 mg/kg (½ of therapeutic dose).

B16 melanoma = test: Binary therapy DDP+GMDP-A in the B16 melanoma model; format: in vivo, BDF1 mice; conditions: for Tumor volume / tumor growth inhibition (TGI) / Average life time / ILT (increase of the animal life time) / Metastasis MF (tumor metastasis frequency) / Metastasis MI (metastasis inhibition rate): DDP, if given, single 4 mg/kg i.v.
Description: as §1, §2, §3, §4
Efficiency of the combined therapy—chemotherapy with DDP cytostatic and biotherapy with GMDP-A was assessed on B16 melanoma model inoculated to BDF1 mice, females, subcutaneously on the right-side body surface.
1 mg/ml GMDP-A solution for subcutaneous injection was prepared by dissolving GMDP-A lyophilisate in water for injections.
GMDP-A was administered to mice subcutaneously as a single dose of 3.75 mg/kg every day with different schedules:
Five-fold (total dose is 18.75 mg/kg) on the 1st day to the 5th day or on the 5th day to the 9th day after tumor inoculation;
Ten-fold (total dose is 37.5 mg/kg) on the 1st day to the 10th day or on the 5th day to the 14th day after tumor inoculation;
DDP (Cisplatin, Cisplatin Teva trade mark, manufacturer is Teva Pharmaceutical Industries Ltd., Israel, fabricated at Pharmachemie B.V., the Netherlands) was administered intravenously as a single dose of 4 mg/kg (½ of therapeutic dose).

[2] = at assumed therapeutic dose and at its five-fold excess; cited from earlier work
[3] = day 7, early start (1st day), 5-fold GMDP-A 3.75 mg/kg s.c.
[4] = day 7, early start (1st day), 10-fold GMDP-A 3.75 mg/kg s.c.
[5] = day 7, early start (1st day), 21-fold GMDP-A 3.75 mg/kg s.c.
[6] = day 7, late start (5th day), 5-fold GMDP-A 3.75 mg/kg s.c.
[7] = day 7, late start (5th day), 10-fold GMDP-A 3.75 mg/kg s.c.
[8] = day 9, early start (1st day), 5-fold GMDP-A 3.75 mg/kg s.c.
[9] = day 9, early start (1st day), 10-fold GMDP-A 3.75 mg/kg s.c.
[10] = day 9, early start (1st day), 21-fold GMDP-A 3.75 mg/kg s.c.
[11] = day 9, late start (5th day), 5-fold GMDP-A 3.75 mg/kg s.c.
[12] = day 9, late start (5th day), 10-fold GMDP-A 3.75 mg/kg s.c.
[13] = day 12, early start (1st day), 5-fold GMDP-A 3.75 mg/kg s.c.
[14] = day 12, early start (1st day), 10-fold GMDP-A 3.75 mg/kg s.c.
[15] = day 12, early start (1st day), 21-fold GMDP-A 3.75 mg/kg s.c.
[16] = day 12, late start (5th day), 5-fold GMDP-A 3.75 mg/kg s.c.
[17] = day 12, late start (5th day), 10-fold GMDP-A 3.75 mg/kg s.c.
[18] = day 14, early start (1st day), 5-fold GMDP-A 3.75 mg/kg s.c.
[19] = day 14, early start (1st day), 10-fold GMDP-A 3.75 mg/kg s.c.
[20] = day 14, early start (1st day), 21-fold GMDP-A 3.75 mg/kg s.c.
[21] = day 14, late start (5th day), 5-fold GMDP-A 3.75 mg/kg s.c.
[22] = day 14, late start (5th day), 10-fold GMDP-A 3.75 mg/kg s.c.
[23] = day 19, early start (1st day), 5-fold GMDP-A 3.75 mg/kg s.c.
[24] = day 19, early start (1st day), 10-fold GMDP-A 3.75 mg/kg s.c.
[25] = day 19, early start (1st day), 21-fold GMDP-A 3.75 mg/kg s.c.
[26] = day 19, late start (5th day), 5-fold GMDP-A 3.75 mg/kg s.c.
[27] = day 19, late start (5th day), 10-fold GMDP-A 3.75 mg/kg s.c.
[28] = early start (1st day), 5-fold GMDP-A 3.75 mg/kg s.c.
[29] = early start (1st day), 10-fold GMDP-A 3.75 mg/kg s.c.
[30] = early start (1st day), 21-fold GMDP-A 3.75 mg/kg s.c.
[31] = late start (5th day), 5-fold GMDP-A 3.75 mg/kg s.c.
[32] = late start (5th day), 10-fold GMDP-A 3.75 mg/kg s.c.
[33] = day 16, early start (1st day), 5-fold GMDP-A 3.75 mg/kg s.c.
[34] = day 16, early start (1st day), 10-fold GMDP-A 3.75 mg/kg s.c.
[35] = day 16, late start (5th day), 5-fold GMDP-A 3.75 mg/kg s.c.
[36] = day 16, late start (5th day), 10-fold GMDP-A 3.75 mg/kg s.c.

CC(=O)NC1C(OC2C(CO)OC(O)C(NC(C)=O)C2OC(C)C(=O)NC(C)C(=O)NC(CCC(=O)O)C(=O)O)OC(CO)C(O)C1O [GMDP-A, N-acetyl-D-glucosaminyl-β-(1-4)-N-acetylmuramyl-L-alanyl-D-glutamic acid]
Tumor volume [1, 3]: 45 ± 2 mm^3
tumor growth inhibition (TGI) [1, 3]: 51%
Tumor volume [1, 4]: 66.6 ± 6 mm^3
tumor growth inhibition (TGI) [1, 4]: 37%
Tumor volume [1, 5]: 73.5 ± 4.8 mm^3
tumor growth inhibition (TGI) [1, 5]: 30%
Tumor volume [1, 6]: 63 ± 12 mm^3
tumor growth inhibition (TGI) [1, 6]: 31%
Tumor volume [1, 7]: 86.5 ± 5.9 mm^3
tumor growth inhibition (TGI) [1, 7]: 18%
Tumor volume [1, 8]: 124 ± 7 mm^3
tumor growth inhibition (TGI) [1, 8]: 36%
Tumor volume [1, 9]: 108.6 ± 14.2 mm^3
tumor growth inhibition (TGI) [1, 9]: 24%
Tumor volume [1, 10]: 120.6 ± 12.5 mm^3
tumor growth inhibition (TGI) [1, 10]: 16%
Tumor volume [1, 11]: 107 ± 18 mm^3
tumor growth inhibition (TGI) [1, 11]: 45%
Tumor volume [1, 12]: 105 ± 9 mm^3
tumor growth inhibition (TGI) [1, 12]: 26%
Tumor volume [1, 13]: 204 ± 54 mm^3
tumor growth inhibition (TGI) [1, 13]: 6%
Tumor volume [1, 14]: 187.3 ± 27.4 mm^3
tumor growth inhibition (TGI) [1, 14]: 4%
Tumor volume [1, 15]: 159.0 ± 14.7 mm^3
tumor growth inhibition (TGI) [1, 15]: 18%
Tumor volume [1, 16]: 172 ± 51 mm^3
tumor growth inhibition (TGI) [1, 16]: 21%
Tumor volume [1, 17]: 163.8 ± 13.5 mm^3
tumor growth inhibition (TGI) [1, 17]: 16%
Tumor volume [1, 18]: 257 ± 24 mm^3
tumor growth inhibition (TGI) [1, 18]: 16%
Tumor volume [1, 19]: 245.3 ± 30.5 mm^3
tumor growth inhibition (TGI) [1, 19]: 9%
Tumor volume [1, 20]: 200.7 ± 17.3 mm^3
tumor growth inhibition (TGI) [1, 20]: 25%
Tumor volume [1, 21]: 257 ± 53 mm^3
tumor growth inhibition (TGI) [1, 21]: 16%
Tumor volume [1, 22]: 242.4 ± 18.3 mm^3
tumor growth inhibition (TGI) [1, 22]: 10%
Tumor volume [1, 23]: 318 ± 42 mm^3
tumor growth inhibition (TGI) [1, 23]: 6%
Tumor volume [1, 24]: 566.9 ± 50.2 mm^3
tumor growth inhibition (TGI) [1, 24]: 11%
Tumor volume [1, 25]: 432.1 ± 67.9 mm^3
tumor growth inhibition (TGI) [1, 25]: 32%
Tumor volume [1, 26]: 302 ± 103 mm^3
tumor growth inhibition (TGI) [1, 26]: 11%
Tumor volume [1, 27]: 510.1 ± 46.6 mm^3
tumor growth inhibition (TGI) [1, 27]: 20%
Average life time [1, 28]: 22 ± 1.2 days
ILT (increase of the animal life time) [1, 28]: 21%
Average life time [1, 29]: 24 ± 0.5 days
ILT (increase of the animal life time) [1, 29]: 0%
Metastasis MF (tumor metastasis frequency) [1, 29]: 100%
Metastasis MI (metastasis inhibition rate) [1, 29]: 10%
Average life time [1, 30]: 23 ± 1.6 days
ILT (increase of the animal life time) [1, 30]: −4%
Metastasis MF (tumor metastasis frequency) [1, 30]: 100%
Metastasis MI (metastasis inhibition rate) [1, 30]: 22%
efficiency for individual use (without chemotherapy) ([1]; example 1): did not reach a biologically significant level
Average life time [1, 31]: 20 ± 0.9 days
ILT (increase of the animal life time) [1, 31]: 7%
Average life time [1, 32]: 24 ± 0.8 days
ILT (increase of the animal life time) [1, 32]: 0%
Metastasis MF (tumor metastasis frequency) [1, 32]: 100%
Metastasis MI (metastasis inhibition rate) [1, 32]: 8%
Tumor volume (B16 melanoma; [3]): 11 ± 6 mm^3
tumor growth inhibition (TGI) (B16 melanoma; [3]): 71%
Tumor volume (B16 melanoma; [4]): 15 ± 6 mm^3
tumor growth inhibition (TGI) (B16 melanoma; [4]): 62%
Tumor volume (B16 melanoma; [8]): 58 ± 11 mm^3
tumor growth inhibition (TGI) (B16 melanoma; [8]): 51%
Tumor volume (B16 melanoma; [9]): 56 ± 9 mm^3
tumor growth inhibition (TGI) (B16 melanoma; [9]): 52%
Tumor volume (B16 melanoma; [11]): 61 ± 9 mm^3
tumor growth inhibition (TGI) (B16 melanoma; [11]): 48%
Tumor volume (B16 melanoma; [12]): 66 ± 14 mm^3
tumor growth inhibition (TGI) (B16 melanoma; [12]): 44%
Tumor volume (B16 melanoma; [13]): 177 ± 33 mm^3
tumor growth inhibition (TGI) (B16 melanoma; [13]): 33%
Tumor volume (B16 melanoma; [14]): 162 ± 21 mm^3
tumor growth inhibition (TGI) (B16 melanoma; [14]): 38%
Tumor volume (B16 melanoma; [16]): 173 ± 17 mm^3
tumor growth inhibition (TGI) (B16 melanoma; [16]): 34%
Tumor volume (B16 melanoma; [17]): 164 ± 29 mm^3
tumor growth inhibition (TGI) (B16 melanoma; [17]): 37%
Tumor volume (B16 melanoma; [18]): 347 ± 47 mm^3
tumor growth inhibition (TGI) (B16 melanoma; [18]): 8%
Tumor volume (B16 melanoma; [19]): 298 ± 44 mm^3
tumor growth inhibition (TGI) (B16 melanoma; [19]): 21%
Tumor volume (B16 melanoma; [21]): 329 ± 41 mm^3
tumor growth inhibition (TGI) (B16 melanoma; [21]): 13%
Tumor volume (B16 melanoma; [22]): 269 ± 62 mm^3
tumor growth inhibition (TGI) (B16 melanoma; [22]): 29%
Tumor volume (B16 melanoma; [33]): 522 ± 82 mm^3
tumor growth inhibition (TGI) (B16 melanoma; [33]): 6%
Tumor volume (B16 melanoma; [34]): 446 ± 53 mm^3
tumor growth inhibition (TGI) (B16 melanoma; [34]): 20%
Tumor volume (B16 melanoma; [35]): 391 ± 67 mm^3
tumor growth inhibition (TGI) (B16 melanoma; [35]): 30%
Tumor volume (B16 melanoma; [36]): 408 ± 79 mm^3
tumor growth inhibition (TGI) (B16 melanoma; [36]): 27%
Tumor volume (B16 melanoma; [23]): 690 ± 208 mm^3
tumor growth inhibition (TGI) (B16 melanoma; [23]): 10%
Tumor volume (B16 melanoma; [24]): 894 ± 99 mm^3
tumor growth inhibition (TGI) (B16 melanoma; [24]): 16%
Tumor volume (B16 melanoma; [26]): 817 ± 234 mm^3
tumor growth inhibition (TGI) (B16 melanoma; [26]): 23%
Tumor volume (B16 melanoma; [27]): 882 ± 238 mm^3
tumor growth inhibition (TGI) (B16 melanoma; [27]): 17%
Average life time (B16 melanoma; [28]): 21 ± 4 days
ILT (increase of the animal life time) (B16 melanoma; [28]): 0%
Metastasis MF (tumor metastasis frequency) (B16 melanoma; [28]): 80%
Metastasis MI (metastasis inhibition rate) (B16 melanoma; [28]): 29%
Average life time (B16 melanoma; [29]): 27 ± 4 days
ILT (increase of the animal life time) (B16 melanoma; [29]): 29%
Metastasis MF (tumor metastasis frequency) (B16 melanoma; [29]): 40%
Metastasis MI (metastasis inhibition rate) (B16 melanoma; [29]): 81%
efficiency for individual use (without chemotherapy) (B16 melanoma; example 2): did not reach a biologically significant level
Average life time (B16 melanoma; [31]): 18 ± 3 days
ILT (increase of the animal life time) (B16 melanoma; [31]): 0%
Metastasis MF (tumor metastasis frequency) (B16 melanoma; [31]): 100%
Metastasis MI (metastasis inhibition rate) (B16 melanoma; [31]): 5%
Average life time (B16 melanoma; [32]): 24 ± 4 days
ILT (increase of the animal life time) (B16 melanoma; [32]): 14%
Metastasis MF (tumor metastasis frequency) (B16 melanoma; [32]): 100%
Metastasis MI (metastasis inhibition rate) (B16 melanoma; [32]): 8%
Toxic action (acute, chronic and specific toxicity) [2]: no toxic action
